Test results: ChEMBL document CHEMBL1135545, “Conformational memories and the endocannabinoid binding site at the cannabinoid CB1 receptor” (J Med Chem, 2002)

Biological target: Cannabinoid receptor 1 (Homo sapiens, UniProt P21554)
Assay: Compound was evaluated for its binding affinity towards Cannabinoid receptor 1 [Inactive form(R) of CB1 receptor]

Sequence of Cannabinoid receptor 1 (P21554 whole entry): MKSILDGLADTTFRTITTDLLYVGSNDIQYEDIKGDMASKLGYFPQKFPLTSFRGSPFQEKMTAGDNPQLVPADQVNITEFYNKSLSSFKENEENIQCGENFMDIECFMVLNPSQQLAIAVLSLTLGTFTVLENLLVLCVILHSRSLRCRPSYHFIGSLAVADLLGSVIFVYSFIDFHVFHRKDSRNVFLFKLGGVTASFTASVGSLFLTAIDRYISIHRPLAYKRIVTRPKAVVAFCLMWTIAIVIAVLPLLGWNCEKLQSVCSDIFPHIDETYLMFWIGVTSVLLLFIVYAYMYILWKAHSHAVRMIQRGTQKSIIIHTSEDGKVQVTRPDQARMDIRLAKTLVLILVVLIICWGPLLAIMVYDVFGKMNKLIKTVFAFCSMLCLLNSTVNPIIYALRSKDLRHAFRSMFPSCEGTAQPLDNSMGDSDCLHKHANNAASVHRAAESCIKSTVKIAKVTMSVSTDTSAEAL

SMILES | Ki [nM]
CCCCC/C=C\C/C=C\C/C=C\C/C=C\CC[C@H](C)C(=O)N[C@@H](C)CO | 389
CCCCC/C=C\C/C=C\C/C=C\C/C=C\CC[C@@H](C)C(=O)N[C@H](C)CO | 7.42
CCCCC/C=C\C/C=C\C/C=C\C/C=C\CCCCCC(=O)NCCO | 34.4
CCCCC/C=C\C/C=C\C/C=C\C/C=C\CC[C@@H](C)C(=O)N[C@@H](C)CO | 233
CCCCC/C=C\C/C=C\CCCCCCCCCC(=O)NCCO | > 1500
CCCCC/C=C\C/C=C\C/C=C\C/C=C\CC[C@H](C)C(=O)N[C@H](C)CO | 185
